Results published in patent US20110212100A1, “METHODS FOR MODULATING DEVELOPMENT AND EXPANSION OF IL-17 EXPRESSING CELLS” (priority 2007, published 2011).

Experiments:
[1] = test system: CD4+ CD25− T cells activated in Th17-priming conditions; format: cell-based, mouse; conditions: 10 nM HF vs MAZ1310, mean ± SD, triplicate
[2] = human, in vivo; cited from earlier work

O=C(CC1NCCCC1O)Cn1cnc2cc(Br)c(Cl)cc2c1=O (racemic) [HF, 7-bromo-6-chloro-3-[3-(3-hydroxy-2-piperidinyl)-2-oxopropyl]-4(3H)-quinazolinone]
Slc7a3 transcript, fold increase HF vs. MAZ1310-3 hr ([1]; 3 hr): 2.0 ± 0.2 fold
Slc14a1 transcript, fold increase HF vs. MAZ1310-3 hr ([1]; 3 hr): 2.0 ± 0.1 fold
Trib3 transcript, fold increase HF vs. MAZ1310-3 hr ([1]; 3 hr): 7.1 ± 2.0 fold
Trim12 transcript, fold increase HF vs. MAZ1310-3 hr ([1]; 3 hr): 2.4 ± 0.1 fold
Vegfa transcript, fold increase HF vs. MAZ1310-3 hr ([1]; 3 hr): 3.2 ± 0.2 fold
Xist transcript, fold increase HF vs. MAZ1310-3 hr ([1]; 3 hr): 3.5 ± 1.7 fold
Aars transcript, fold increase HF vs. MAZ1310-6 hr ([1]; 6 hr): 2.6 ± 0.2 fold
Aff1 transcript, fold increase HF vs. MAZ1310-6 hr ([1]; 6 hr): 2.6 ± 0.3 fold
Aldh18a1 transcript, fold increase HF vs. MAZ1310-6 hr ([1]; 6 hr): 2.7 ± 0.2 fold
Asns transcript, fold increase HF vs. MAZ1310-6 hr ([1]; 6 hr): 7.1 ± 0.5 fold
Atf3 transcript, fold increase HF vs. MAZ1310-6 hr ([1]; 6 hr): 3.2 ± 0.5 fold
Atf5 transcript, fold increase HF vs. MAZ1310-6 hr ([1]; 6 hr): 8.9 ± 1.0 fold
Cars transcript, fold increase HF vs. MAZ1310-6 hr ([1]; 6 hr): 2.2 ± 0.3 fold
Cd274 transcript, fold increase HF vs. MAZ1310-6 hr ([1]; 6 hr): 2.0 ± 0.1 fold
Cebpb transcript, fold increase HF vs. MAZ1310-6 hr ([1]; 6 hr): 8.0 ± 0.2 fold
Cebpg transcript, fold increase HF vs. MAZ1310-6 hr ([1]; 6 hr): 3.1 ± 0.5 fold
Chd2 transcript, fold increase HF vs. MAZ1310-6 hr ([1]; 6 hr): 2.5 ± 0.5 fold
Cldn12 transcript, fold increase HF vs. MAZ1310-6 hr ([1]; 6 hr): 4.6 ± 0.5 fold
Clic4 transcript, fold increase HF vs. MAZ1310-6 hr ([1]; 6 hr): 2.8 ± 0.2 fold
Cth transcript, fold increase HF vs. MAZ1310-6 hr ([1]; 6 hr): 16.0 ± 1.6 fold
Cxcl10 transcript, fold increase HF vs. MAZ1310-6 hr ([1]; 6 hr): 2.1 ± 0.1 fold
D8Ertd56e transcript, fold increase HF vs. MAZ1310-6 hr ([1]; 6 hr): 3.1 ± 0.8 fold
Ddit3 transcript, fold increase HF vs. MAZ1310-6 hr ([1]; 6 hr): 5.0 ± 0.7 fold
Et4Ebp1 transcript, fold increase HF vs. MAZ1310-6 hr ([1]; 6 hr): 5.3 ± 0.3 fold
Gpt2 transcript, fold increase HF vs. MAZ1310-6 hr ([1]; 6 hr): 16.7 ± 2.2 fold
Herpud1 transcript, fold increase HF vs. MAZ1310-6 hr ([1]; 6 hr): 2.7 ± 0.1 fold
Icam1 transcript, fold increase HF vs. MAZ1310-6 hr ([1]; 6 hr): 2.8 ± 0.3 fold
Irf1 transcript, fold increase HF vs. MAZ1310-6 hr ([1]; 6 hr): 2.6 ± 0.2 fold
Lers transcript, fold increase HF vs. MAZ1310-6 hr ([1]; 6 hr): 2.1 ± 0.0 fold
Mpa2l transcript, fold increase HF vs. MAZ1310-6 hr ([1]; 6 hr): 7.3 ± 1.7 fold
Ncoa7 transcript, fold increase HF vs. MAZ1310-6 hr ([1]; 6 hr): 3.2 ± 0.5 fold
Nfkbiz transcript, fold increase HF vs. MAZ1310-6 hr ([1]; 6 hr): 1.9 ± 0.3 fold
Past1 transcript, fold increase HF vs. MAZ1310-6 hr ([1]; 6 hr): 2.6 ± 0.0 fold
Pck2 transcript, fold increase HF vs. MAZ1310-6 hr ([1]; 6 hr): 7.4 ± 0.9 fold
Pdcd1lg2 transcript, fold increase HF vs. MAZ1310-6 hr ([1]; 6 hr): 2.5 ± 0.3 fold
Phgdh transcript, fold increase HF vs. MAZ1310-6 hr ([1]; 6 hr): 4.2 ± 0.3 fold
Psph transcript, fold increase HF vs. MAZ1310-6 hr ([1]; 6 hr): 3.4 ± 0.3 fold
Pvr transcript, fold increase HF vs. MAZ1310-6 hr ([1]; 6 hr): 2.0 ± 0.1 fold
Pycr1 transcript, fold increase HF vs. MAZ1310-6 hr ([1]; 6 hr): 6.6 ± 0.4 fold
Pycs transcript, fold increase HF vs. MAZ1310-6 hr ([1]; 6 hr): 2.3 ± 0.1 fold
Sars1 transcript, fold increase HF vs. MAZ1310-6 hr ([1]; 6 hr): 2.3 ± 0.1 fold
Sesn2 transcript, fold increase HF vs. MAZ1310-6 hr ([1]; 6 hr): 2.3 ± 0.2 fold
Slamf7 transcript, fold increase HF vs. MAZ1310-6 hr ([1]; 6 hr): 2.1 ± 0.2 fold
Slc1a4 transcript, fold increase HF vs. MAZ1310-6 hr ([1]; 6 hr): 4.6 ± 0.4 fold
Slc6a9 transcript, fold increase HF vs. MAZ1310-6 hr ([1]; 6 hr): 5.7 ± 0.6 fold
Slc7a3 transcript, fold increase HF vs. MAZ1310-6 hr ([1]; 6 hr): 6.5 ± 0.9 fold
Slc14a1 transcript, fold increase HF vs. MAZ1310-6 hr ([1]; 6 hr): 6.6 ± 0.4 fold
Trib3 transcript, fold increase HF vs. MAZ1310-6 hr ([1]; 6 hr): 18.5 ± 8.5 fold
Trim12 transcript, fold increase HF vs. MAZ1310-6 hr ([1]; 6 hr): 4.9 ± 0.7 fold
Vegfa transcript, fold increase HF vs. MAZ1310-6 hr ([1]; 6 hr): 5.8 ± 0.5 fold
Xist transcript, fold increase HF vs. MAZ1310-6 hr ([1]; 6 hr): 2.1 ± 0.7 fold
HF in serum during topical treatment, in words [2]: undetectable in serum
